Reference: PubChem BioAssay AID1963826 (Molecular Pharmacology Branch, DTP, NCI, 2024)

Test system: 926638-142-R-J1-PDC complex spheroid viability
Experiment: Anticancer human tumor 926638-142-R-J1-PDC patient-derived endometrial carcinoma cell line growth inhibition [POLQ]
Conditions: for IC50: curve of first compound; for viability, T/C: stronger effect = lower value
Protocol: Multicellular complex tumor spheroid response to Polymerase (POL) inhibitors (novobiocin, ART-558, RP6685) in combination with a variety of drugs and investigational agents in selected tumor cell lines
The POL inhibitors (novobiocin, ART-558, and RP6685) were evaluated both individually and in combination with standard of care and investigational anticancer small molecules within a complex spheroid model of solid tumors. . Complex spheroids include a stromal component modeled by human endothelial cells (HUVEC) and fibroblasts modeled by human mesenchymal stem cells (MSCs). The concentration ranges selected for each drug and investigational agent were based upon clinically achievable concentrations if the clinical Cmax of the agent was known.
Compounds. The drugs and investigational agents: novobiocin (NSC847541), ART-558 (NSC835418), RP-6685 (NSC848927), peposertib (NSC802822), ceralasertib (NSC780249), elimusertib (NSC800525), camonsertib (NSC841442), AZD-1390 (NSC803789), olaparib (NSC753686), talazoparib (NSC767125), rucaparib (NSC756644), sotorasib (NSC818433), MRTX-1133 (NSC836407), SN-38 (NSC673596), topotecan (NSC609699), epotoside (NSC141540), doxorubicin (NSC123127), gemcitabine (NSC613327), 5-fluorouracil (NSC19893), paclitaxel (NSC125973), vemurafenib (NSC761431), MSA-2 (NSC828583), SN-011 (NSC837082), adavosertib (NSC754352), prexasertib (NSC758257), carboplatin (NSC241240) and oxaliplatin (NSC266046), were obtained from the National Cancer Institute (NCI) Developmental Therapeutics Program Chemical Repository (21). The FDA-approved anticancer drug set is available from the Developmental Therapeutics Program at https://dtp.cancer.gov/organization/dscb/obtaining/. […] The stock solutions were prepared in dimethyl sulfoxide (DMSO, Sigma-Aldrich, St. Louis, MO, cat. D2650), except for the platinum compounds which were prepared in saline (Quality Biological, Gaithersburg, MD, cat. 114-055-101), at 800-fold the tested concentration and stored at -70 degrees C prior to their use. All drugs and investigational agents were tested over a range starting from a high concentration at or near the clinical Cmax and decreasing in half-log increments. If the clinical Cmax for an agent had not been determined, the highest concentration tested was 10 microM, except for SN-38, which was tested at a high concentration of 1 microM.
Cell Culture. All cells were maintained in an incubator at 37 degrees C and 5% CO2 with 95% humidity. The PDC lines were cultured according to standard operating procedures established by the NCI PDMR (https://pdmr.cancer.gov). Table 3 of the manuscript, lists the cell lines along with the number of the three cell types plated to form the mct-spheroids and media for tumor cell growth. After thawing, all PDC lines, except 997537-175-T-J1-PDC and 415267-285-R-J2-PDC, were cultured in Matrigel-coated flasks prepared with a working solution of 1X Ham's F-12 nutrient mix, without supplementation (Thermo Fisher Scientific, cat. 11765054), 100 U/mL penicillin-streptomycin (Thermo Fisher Scientific, cat. 15140122), and 2.5% Matrigel (Corning Inc., Corning, NY, cat. 354248) for the first three passages. The two PDC lines 997537-175-T-J1-PDC and 415267-285-R-J2-PDC were cultured on uncoated flasks. The 857933-349-R-J2-PDC line was cultured in 6C/Colon 1B media containing advanced DMEM/F-12 (Thermo Fisher Scientific, cat. 12634028), 10 mM HEPES (Thermo Fisher Scientific, cat. 15630080), 1X GlutaMAX supplement (Thermo Fisher Scientific, cat. 35050061), 0.1 mg/mL primocin (InvivoGen, San Diego, CA, cat. ant-pm-2), 10% defined fetal bovine serum, heat inactivated (HyClone Laboratories Inc., Logan, UT, cat. SH30070.03HI), 50% L-WRN conditioned media (ATCC, cat. CRL-3276), 1.25 mM N-Acetyl-L-cysteine (Sigma-Aldrich, cat. A9165), 10 mM nicotinamide (Sigma-Aldrich, cat. N0636), 1X B-27 supplement (Thermo Fisher Scientific, cat. 17504044), 1X N-2 supplement (Thermo Fisher Scientific, cat. […]

[1] = second compound 0.0316 µM, first compound 0.0316 µM
[2] = second compound 0.0316 µM, first compound 0.1 µM
[3] = second compound 0.0316 µM, first compound 0.316 µM
[4] = second compound 0.0316 µM, first compound 1 µM
[5] = second compound 0.0316 µM, first compound 3.16 µM
[6] = second compound 0.0316 µM, first compound 10 µM
[7] = second compound 0.1 µM, first compound 0.0316 µM
[8] = second compound 0.1 µM, first compound 0.1 µM
[9] = second compound 0.1 µM, first compound 0.316 µM
[10] = second compound 0.1 µM, first compound 1 µM
[11] = second compound 0.1 µM, first compound 3.16 µM
[12] = second compound 0.1 µM, first compound 10 µM
[13] = second compound 0.316 µM, first compound 0.0316 µM
[14] = second compound 0.316 µM, first compound 0.1 µM
[15] = second compound 0.316 µM, first compound 0.316 µM
[16] = second compound 0.316 µM, first compound 1 µM
[17] = second compound 0.316 µM, first compound 3.16 µM
[18] = second compound 0.316 µM, first compound 10 µM
[19] = second compound 1 µM, first compound 0.0316 µM
[20] = second compound 1 µM, first compound 0.1 µM
[21] = second compound 1 µM, first compound 0.316 µM
[22] = second compound 1 µM, first compound 1 µM
[23] = second compound 1 µM, first compound 3.16 µM
[24] = second compound 1 µM, first compound 10 µM
[25] = second compound 3.16 µM, first compound 0.0316 µM
[26] = second compound 3.16 µM, first compound 0.1 µM
[27] = second compound 3.16 µM, first compound 0.316 µM
[28] = second compound 3.16 µM, first compound 1 µM
[29] = second compound 3.16 µM, first compound 3.16 µM
[30] = second compound 3.16 µM, first compound 10 µM
[31] = second compound 10 µM, first compound 0.0316 µM
[32] = second compound 10 µM, first compound 0.1 µM
[33] = second compound 10 µM, first compound 0.316 µM
[34] = second compound 10 µM, first compound 1 µM
[35] = second compound 10 µM, first compound 3.16 µM
[36] = second compound 10 µM, first compound 10 µM
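Also: spheroids exposed to drugs for one week before readout.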
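For viability, T/C in this document: percent viability relative to DMSO vehicle control wells set as 100%.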

`COc1cc(C2c3cc4c(cc3C(OC3OC5COC(C)OC5C(O)C3O)C3COC(=O)C23)OCO4)cc(OC)c1O` (centres undefined) + COC1C(OC(N)=O)C(O)C(Oc2ccc3c(O)c(NC(=O)c4ccc(O)c(CC=C(C)C)c4)c(=O)oc3c2C)OC1(C)C showed an IC50 (second compound 0.0316 µM) greater than 10000 nM, an IC50 (second compound 0.1 µM) greater than 10000 nM and an IC50 (second compound 0.316 µM) greater than 10000 nM. The IC50 (second compound 1 µM) was greater than 10000 nM, the IC50 (second compound 3.16 µM) was greater than 10000 nM and the IC50 (second compound 10 µM) was greater than 10000 nM. For the same compound, the viability, T/C [1] was 86.8%, the viability, T/C [2] was 79% and the viability, T/C [3] was 78.1%. For the same compound, the viability, T/C [4] was 78.4%, the viability, T/C [5] was 70.1% and the viability, T/C [6] was 56.2%. It also gave a viability, T/C [7] of 95%, a viability, T/C [8] of 80.6% and a viability, T/C [9] of 83.1%. It also gave a viability, T/C [10] of 62.7%, a viability, T/C [11] of 57.5% and a viability, T/C [12] of 57.7%. For the same compound, the viability, T/C [13] was 88.2%, the viability, T/C [14] was 98.7% and the viability, T/C [15] was 75.7%. The viability, T/C [16] was 79.3%, the viability, T/C [17] was 66% and the viability, T/C [18] was 64.6%. It also gave a viability, T/C [19] of 84.1%, a viability, T/C [20] of 85.8% and a viability, T/C [21] of 79%. For the same compound, the viability, T/C [22] was 61.6%, the viability, T/C [23] was 70.9% and the viability, T/C [24] was 55.6%. It also gave a viability, T/C [25] of 82%, a viability, T/C [26] of 88.4% and a viability, T/C [27] of 83.2%. For the same compound, the viability, T/C [28] was 80.2%, the viability, T/C [29] was 71.2% and the viability, T/C [30] was 60.9%. For the same compound, the viability, T/C [31] was 81.8%, the viability, T/C [32] was 75.3% and the viability, T/C [33] was 78.1%. It also gave a viability, T/C [34] of 74.9%, a viability, T/C [35] of 68.8% and a viability, T/C [36] of 55%.

`COc1cccc2c1C(=O)c1c(O)c3c(c(O)c1C2=O)CC(O)(C(=O)CO)CC3OC1CC(N)C(O)C(C)O1` (centres undefined) + COC1C(OC(N)=O)C(O)C(Oc2ccc3c(O)c(NC(=O)c4ccc(O)c(CC=C(C)C)c4)c(=O)oc3c2C)OC1(C)C showed an IC50 (second compound 0.0316 µM) of 94.1 nM, an IC50 (second compound 0.1 µM) of 167 nM and an IC50 (second compound 0.316 µM) of 129 nM. For the same compound, the IC50 (second compound 1 µM) was 128 nM, the IC50 (second compound 3.16 µM) was 133 nM and the IC50 (second compound 10 µM) was 154 nM. The viability, T/C [1] was 73.2%, the viability, T/C [2] was 48.3% and the viability, T/C [3] was 17.7%. For the same compound, the viability, T/C [4] was 1.39%, the viability, T/C [5] was 0.18% and the viability, T/C [6] was 0.28%. For the same compound, the viability, T/C [7] was 81%, the viability, T/C [8] was 74.1% and the viability, T/C [9] was 19.9%. The viability, T/C [10] was 3.56%, the viability, T/C [11] was 0.18% and the viability, T/C [12] was 0.25%. It also gave a viability, T/C [13] of 81.6%, a viability, T/C [14] of 59.9% and a viability, T/C [15] of 15.9%. For the same compound, the viability, T/C [16] was 1.61%, the viability, T/C [17] was 0.22% and the viability, T/C [18] was 0.17%. For the same compound, the viability, T/C [19] was 72.9%, the viability, T/C [20] was 59.8% and the viability, T/C [21] was 14%. The viability, T/C [22] was 2.68%, the viability, T/C [23] was 0.17% and the viability, T/C [24] was 0.21%. For the same compound, the viability, T/C [25] was 74.3%, the viability, T/C [26] was 61.1% and the viability, T/C [27] was 16.2%. It also gave a viability, T/C [28] of 3.97%, a viability, T/C [29] of 0.21% and a viability, T/C [30] of 0.21%. For the same compound, the viability, T/C [31] was 90.7%, the viability, T/C [32] was 69% and the viability, T/C [33] was 18%. For the same compound, the viability, T/C [34] was 2.23%, the viability, T/C [35] was 0.25% and the viability, T/C [36] was 0.26%.
